Among the test systems are MALME-3M melanoma; 786-0 renal; RXF 393 renal; A498 renal; OVCAR-5 ovarian; A549 NSCLC; COLO 205 colon; HCT-15 colon; PC-3 prostate; CAKI-1 renal.
What all share (experiment): NCI anticancer screen, dose series, 48 h

Each structure is given as a SMILES string. “And” between values parts separate entries of the source, which are not always exact repeats. Identical values can stand only once.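 Step 1: Grow cells in 96-well plates. Step 2: Expose to compound for 48 hours at 5 concentrations. Step 3: Interpolate endpoints linearly; if unreached, use highest concentration. GI50 is the concentration that inhibits growth by half. TGI: concentration producing complete growth inhibition.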

As for `CCN(CC)CCOc1ccc(C(=C(C)c2ccc(Cl)cc2)c2ccc(OCCN(CC)CC)cc2)cc1`, the GI50 was 0.563 µM with MALME-3M melanoma; 0.597 µM in the test with 786-0 renal; 0.519 µM with RXF 393 renal; 1.79 µM in the test on A498 renal; 0.664 µM with OVCAR-5 ovarian; 0.632 µM in the test on A549 NSCLC. The GI50 with COLO 205 colon is 0.581 µM; in the test on HCT-15 colon, 0.556 µM; with PC-3 prostate it was 0.63 µM; with CAKI-1 renal, 0.504 µM. Besides, the TGI was determined as 1.09 µM in the test with MALME-3M melanoma; 1.12 µM with 786-0 renal; 1.01 µM in the test with RXF 393 renal; 6.12 µM with A498 renal; 1.57 µM with OVCAR-5 ovarian; 1.31 µM in the test on A549 NSCLC. The TGI in the test with COLO 205 colon came to 1.16 µM; in the test on HCT-15 colon, 1.08 µM; in the test with PC-3 prostate, 1.36 µM; in the test with CAKI-1 renal, 1.02 µM.
Regarding `CCc1ccc(NC(=O)Nc2c[nH]c3ccccc23)cc1`, the GI50 is 8 µM in the test on MALME-3M melanoma; 8.55 µM in the test on 786-0 renal; 11.6 µM with RXF 393 renal; greater than 46 µM with A498 renal; 34 µM with OVCAR-5 ovarian; 6.26 µM in the test with A549 NSCLC. Further, the GI50 in the test with COLO 205 colon is greater than 38.9 µM; in the test on HCT-15 colon, 17.8 µM; in the test on PC-3 prostate it was 5.13 µM; in the test with CAKI-1 renal it was 3.59 µM. Also, the TGI in the test with MALME-3M melanoma is greater than 49.4 µM; in the test on 786-0 renal, greater than 81.9 µM; in the test on RXF 393 renal, greater than 59.4 µM; in the test on A498 renal, greater than 72.8 µM; in the test on OVCAR-5 ovarian it was greater than 57.9 µM; in the test on A549 NSCLC, greater than 48 µM. Moreover, the TGI in the test on COLO 205 colon was greater than 54 µM; with HCT-15 colon, greater than 55.2 µM; in the test with PC-3 prostate it was greater than 63.7 µM; in the test on CAKI-1 renal it was greater than 42 µM.
`COc1cc(Cn2cc3c(c2)-c2oncc2CC3)cc(OC)c1OC`: the GI50 with MALME-3M melanoma is 0.0254 µM; in the test with 786-0 renal it was 0.109 µM; with RXF 393 renal, 0.0255 µM; in the test with A498 renal, 0.0196 µM; in the test with OVCAR-5 ovarian, 0.0735 µM; in the test on A549 NSCLC, 0.0509 µM. Moreover, the GI50 with COLO 205 colon is 0.0332 µM; with HCT-15 colon, 0.0415 µM; in the test with PC-3 prostate, 0.0526 µM; in the test with CAKI-1 renal it was 0.0337 µM. The TGI in the test with MALME-3M melanoma is 30.3 µM; with 786-0 renal it was greater than 64.6 µM; in the test on RXF 393 renal, greater than 100 µM; in the test on A498 renal it was 1.04 µM; in the test on OVCAR-5 ovarian, greater than 100 µM; with A549 NSCLC, greater than 100 µM. Further, the TGI in the test on COLO 205 colon is 0.0957 µM; in the test with HCT-15 colon, greater than 100 µM; with PC-3 prostate, greater than 100 µM; with CAKI-1 renal it was greater than 42.1 µM.
On to `C=C(C)[C@@H]1CC=C(CO)CC1`, for which the GI50 in the test on MALME-3M melanoma, in the test with 786-0 renal, in the test with RXF 393 renal, with A498 renal, with OVCAR-5 ovarian and with A549 NSCLC was greater than 10 µM each time. Besides, the GI50 with COLO 205 colon and in the test with HCT-15 colon was greater than 10 µM in each case. Besides, the TGI in the test with MALME-3M melanoma is > 10 µM and 1080 µM; in the test with 786-0 renal, > 10 µM and 943 µM; in the test on RXF 393 renal, > 10 µM and 569 µM; with A498 renal, > 10 µM and 1170 µM; in the test on OVCAR-5 ovarian it was > 10 µM and 798 µM; in the test with A549 NSCLC, > 10 µM and 755 µM. The TGI in the test on COLO 205 colon is > 10 µM and 768 µM; in the test with HCT-15 colon it was > 10 µM and 790 µM; in the test on PC-3 prostate it was greater than 10 µM; with CAKI-1 renal, greater than 10 µM.
On to `OCC1OC(n2ccc3c2ncn2ncnc32)C(O)C1O` (stereo not drawn), for which the GI50 with MALME-3M melanoma was 29 µM; with 786-0 renal, 2.47 µM; with RXF 393 renal, 0.989 µM; in the test on A498 renal it was 0.205 µM; with OVCAR-5 ovarian it was 1.19 µM; with A549 NSCLC, 4.91 µM. Also, the GI50 with COLO 205 colon is 2.77 µM; in the test with HCT-15 colon, 0.47 µM; in the test with PC-3 prostate, 0.459 µM; in the test on CAKI-1 renal, 2.67 µM. For the same compound, the TGI in the test with MALME-3M melanoma was greater than 100 µM; in the test on 786-0 renal, greater than 100 µM; with RXF 393 renal it was 13.8 µM; in the test on A498 renal, 2.37 µM; with OVCAR-5 ovarian, greater than 100 µM; in the test with A549 NSCLC, greater than 100 µM. Moreover, the TGI in the test on COLO 205 colon was 19.1 µM; in the test with HCT-15 colon, greater than 100 µM; in the test with PC-3 prostate, 22.8 µM; with CAKI-1 renal, greater than 100 µM.
Consider `N=C(N)c1nn(C2OC(CO)C(O)C2O)c2nc[nH]c(=O)c12` (stereo not drawn), for which the GI50 with MALME-3M melanoma is 0.206 µM; in the test on 786-0 renal, 0.642 µM; with RXF 393 renal, 0.696 µM; in the test on A498 renal it was 1.46 µM; in the test with OVCAR-5 ovarian, 2.85 µM; in the test with A549 NSCLC, 0.659 µM. For the same compound, the GI50 is 1.01 µM in the test on COLO 205 colon, 0.587 µM in the test with HCT-15 colon, 0.788 µM in the test on PC-3 prostate and 0.264 µM in the test with CAKI-1 renal. Besides, the TGI amounted to 0.612 µM with MALME-3M melanoma; 4.61 µM in the test on 786-0 renal; 4.89 µM in the test on RXF 393 renal; 4.74 µM with A498 renal; 14.2 µM in the test with OVCAR-5 ovarian; 13.4 µM in the test on A549 NSCLC. Also, the TGI in the test with COLO 205 colon came out at 3.26 µM; in the test on HCT-15 colon it was 5.71 µM; in the test with PC-3 prostate, 6.74 µM; in the test on CAKI-1 renal it was 1.2 µM.
Turning to `c1ccc2[nH]c(-c3ccc(N4CCN(c5ccc(-c6nc7ccccc7[nH]6)cc5)CC4)cc3)nc2c1`, the GI50 is greater than 100 µM in the test on MALME-3M melanoma; 36.9 µM with 786-0 renal; greater than 100 µM in the test on RXF 393 renal; 54.8 µM with A498 renal; 52 µM with OVCAR-5 ovarian; greater than 100 µM with A549 NSCLC. Also, the GI50 in the test with COLO 205 colon, with HCT-15 colon, with PC-3 prostate and in the test on CAKI-1 renal was greater than 100 µM throughout. Besides, the TGI in the test on MALME-3M melanoma, with 786-0 renal, in the test with RXF 393 renal, with A498 renal, in the test on OVCAR-5 ovarian and in the test with A549 NSCLC was greater than 100 µM each time. In addition, the TGI with COLO 205 colon, in the test on HCT-15 colon, with PC-3 prostate and in the test with CAKI-1 renal was greater than 100 µM throughout.

(Values after PubChem BioAssay (NCI).)
